Test results reported in patent US20140255432A1, “SILVESTROL, SILVESTROL ANALOGS AND USES THEREOF” (priority 2011, published 2014).

Key:
LMP-1 = experiment: Immunoblot of LMP-1 in LCL; type: cell-based, Epstein-Barr virus
Method: (§1) Cells were harvested and lysed as described (Alinari 2011). Following collection of whole cell lysates, equal amounts of protein were resolved by SDS-PAGE and transferred onto a PVDF membrane (Millipore, Billerica, Mass.). Membrane was probed overnight at 4° C. with β-actin, pSTAT1, pSTAT3, STAT1, STAT3, pAkt, Akt (Cell Signaling Technology, Danvers, Mass.), or LMP-1 (DakoCytomation, Carpinteria, Calif.). After incubation with HRP-conjugated secondary antibody (Cell Signaling Technology), protein was detected with SuperSignal West Pico Chemiluminescent Substrate (Pierce, Rockford, Ill.).
(§2) Whole cell protein levels of LMP-1 was evaluated by immunoblot 72 hr after treating with a single dose (10 nM) of silvestrol in seven LCL lines (FIG. 3A). β-actin was included as a loading control. In FIG. 3B, LCL were incubated 24, 72, and 120 hr in the presence of 10 nM silvestrol or vehicle control. Whole cell lysates were immunoblotted for LMP-1. Results are representative of 3 LCL lines. […] Decreases in other latent gene products involved with EBV-driven B cell transformation were observed as well. In FIG. 3D, LCL were incubated as in FIG. 3B and immunoblotted for STAT1, STAT3, AKT and NF-κB p65.

EBNA2, EBNA3C, BZLF1 = experiment: Immunoblot of other EBV proteins in LCL; type: cell-based, Epstein-Barr virus; conditions: FIG. 3C
Method: as §1, §2

lymphoma cell lines = experiment: IC50 against lymphoma cell lines; type: cell-based; conditions: Homo sapiens
Text: These include EBV^+ lymphoblastoid cell lines (LCL) derived from SCID mice engrafted with peripheral blood mononuclear cells (hu-PBL-SCID) from EBV-positive donors. (FIG. 1). This hu-PBL-SCID model is a spontaneous, preclinical model of EBV-driven lymphomagenesis that can be utilized to study the anti-tumor and immune surveillance activity of EBV-specific memory T cells. In vitro, the anti-proliferative effect of silvestrol against EBV+ LCLs (FIG. 2) is preceded by a loss of EBV latent membrane protein 1 (LMP1). In FIG. 2A, relative proliferation was determined. MTS assays were performed on three donors treated with silvestrol (2, 5, or 10 nM) or DMSO (control). The assays were performed on days 1, 3, and 5. In FIG. 2B, relative growth was determined. Viability assays were performed on cells from three donors treated with silvestrol (2, 5, or 10 nM) or DMSO (control). The assays were performed on days 1, 3, and 5. Viability was assessed by annexin/propidium iodide flow cytometry.

## COC(=O)[C@H]1[C@@H](O)[C@@]2(O)c3c(OC)cc(O[C@@H]4O[C@@H]([C@H](O)CO)CO[C@H]4OC)cc3O[C@@]2(c2ccc(OC)cc2)[C@@H]1c1ccccc1 [silvestrol]
LMP-1; 10 nM, 5 days, cells from seven donors (FIG. 3A)
  LMP1 protein levels: reduced LMP1 protein levels
LMP-1; single 10 nM dose, 24, 72, 120 hr (FIG. 3B)
  LMP-1 levels over time: fall incrementally as a function of time
EBNA2, EBNA3C, BZLF1
  EBNA2 and EBNA3C proteins: affected
  expression of BZLF1: did not affect
Lymphoma cell lines
  IC50: < 10 nM
